Laboratory results from patent US20250387379A1, “ARYL-ANILINE AND HETEROARYL-ANILINE COMPOUNDS FOR TREATMENT OF SKIN CANCERS” (NFLECTION THERAPEUTICS, INC., priority 2018, published 2025).

Key:
[1] = topical application; cited from earlier work
MAP2K1 (MEK1) = MAP2K1 (MEK1) (Homo sapiens (Human), UniProt Q02750); experiment: MEK Inhibition Assay-2 (Z'-LYTE biochemical assay; Example 5); details: Table 6, Z'-LYTE procedure of Example 5; read-out: IC50 against MEK1
Description: MEK1 inhibitory activity of compounds were tested using the following procedure (protocol available at thermofisher.com/content/dam/LifeTech/migration/files/drug-discovery/pdfs.par.60256.file.dat/20130430%20ssbk%20customer%20protocol%20and%20assay%20conditions.pdf). The Z′-LYTE biochemical assay (ThermoFisher) employs a fluorescence-based, coupled-enzyme format and is based on the differential sensitivity of phosphorylated and non-phosphorylated peptides to proteolytic cleavage.
Test compounds in 100% DMSO were screened in 1% DMSO (final) in the well. For 10 point titrations, 3-fold serial dilutions are conducted from the starting concentration of 30 μM.
After the 1 hour incubation, 5 μL of a 1:1024 dilution of Development Reagent A (available from Invitrogen, catalog no. PV3295) was added.
ATP solutions were diluted to a 4× working concentration in Kinase Buffer (50 mM HEPES pH 7.5, 0.01% BRIJ-35, 10 mM MgCl2, 1 mM EGTA). ATP Km apparent was previously determined using a Z′-LYTE assay. The Development Reagent was diluted in Development Buffer (available from Invitrogen, catalog no. P3127).
Assay Protocol: 2.5 μL of 4× test compound or 100 nL of 100× Test Compound plus 2.4 μL Kinase Buffer, 5 μL of the 2× Peptide/Kinase Mixture, 2.5 μL of 4×ATP Solution were added to the plates and placed on a shake plate for 30-seconds. The kinase reaction was allowed to proceed for 60-minute at room temperature, before 5 μL of Development Reagent Solution was added, and the mixture agitated for 30-seconds on a shake plate. The mixture was incubated for 60-minute at room temperature. Fluorescence was measured using a plate reader and the data were analyzed.
This control yielded 100% cleaved peptide in the Development Reaction. The 100% Phosphorylation Control, which consisted of a synthetically phosphorylated peptide of the same sequence as the peptide substrate, was designed to allow for the calculation of percent phosphorylation. This control yielded a very low percentage of cleaved peptide in the Development Reaction. The 0% Phosphorylation and 100% Phosphorylation Controls allow for the calculation of the percent phosphorylation achieved in a specific reaction well.
The minimum emission ratio in a screen was established by the 0% Inhibition Control, which contained active kinase. This control was designed to produce a 10-50% phosphorylated peptide in the Kinase Reaction. Cascade assays may produce up to 70% phosphorylated peptide.
A known inhibitor control standard curve, 10 point titration, was run for each individual kinase on the same plate as the kinase to ensure the kinase was inhibited within an expected IC50 range previously determined.
The following controls are prepared for each concentration of Test Compound assayed. […] The expected value for a non-interfering compound should be 100%. Any value outside of 90% to 110% was flagged. […] The expected value for a non-fluorescence compound should be 0%. Any value >20% was flagged.
The data in Table A was calculated. XLfit from IDBS was used. The dose response curve was curve fit to model number 205 (sigmoidal dose-response model).

[2] = tested on: cutaneous squamous-cell carcinoma tumors
skin tumors = details: oral; trametinib 2 mg/kg/day, cobimetinib 10 mg/kg/day; chronic, low-dose, solar simulated UV light; cited from earlier work

MAP2K1 (MEK1), sequence (Q02750 whole entry): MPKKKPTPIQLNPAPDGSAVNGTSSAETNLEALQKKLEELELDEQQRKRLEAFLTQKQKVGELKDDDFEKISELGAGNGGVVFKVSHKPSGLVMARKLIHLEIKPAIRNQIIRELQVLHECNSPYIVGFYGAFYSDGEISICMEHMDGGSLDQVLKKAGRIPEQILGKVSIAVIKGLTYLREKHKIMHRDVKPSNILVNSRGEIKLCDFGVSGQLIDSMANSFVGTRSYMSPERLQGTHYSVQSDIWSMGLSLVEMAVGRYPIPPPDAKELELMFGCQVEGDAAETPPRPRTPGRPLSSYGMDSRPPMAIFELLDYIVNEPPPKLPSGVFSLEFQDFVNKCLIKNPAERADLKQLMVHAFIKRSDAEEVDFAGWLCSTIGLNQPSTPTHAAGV

In the case of `O=c1[nH]cc(F)c(=O)[nH]1` [5-fluorouracil], the “patients who experienced at least 1 adverse event ranging from mild to severe” value [1] is given as ≤ 97%.

With `N#Cc1ccc(C(=O)N2CC(O)C2)c(Nc2ccc(I)cc2F)c1` [Compound 1.002] the IC50 (MAP2K1 (MEK1)) was > 1.5 µM.

In the case of `N#Cc1ccc(C(=O)NOCCO)c(Nc2ccc(I)cc2F)c1` [Compound 1.010], the IC50 (MAP2K1 (MEK1)) is reported as ≤ 0.15 µM.

For `N#Cc1ccc(C(=O)NO)c(Nc2ccc(I)cc2F)c1` [Compound 1.017], the IC50 (MAP2K1 (MEK1)) was ≤ 0.15 µM.

In the case of `COC(=O)CCONC(=O)c1ccc(C#N)cc1Nc1ccc(I)cc1F` [Compound 1.022], the IC50 (MAP2K1 (MEK1)) is reported as > 1.5 µM.

With `N#Cc1ccc(C(=O)NOCCO)c(Nc2ccc(I)cc2F)c1F` [Compound 1.030] the IC50 (MAP2K1 (MEK1)) was ≤ 0.15 µM.

For `N#Cc1ccc(C(=O)NOCC2CC2)c(Nc2ccc(I)cc2F)c1F` [Compound 1.031], the IC50 (MAP2K1 (MEK1)) was ≤ 0.15 µM.

For `Cn1c(Nc2ccc(I)cc2F)c(C(=O)NOCCO)c2cccnc21` [Compound 2.003], the “body weight loss of treated mice” value ([2]; topical delivery) was “none of the mice lost weight”, the “tumor formation versus topical vehicle (placebo)” value ([2]; topical gel 0.01%, 0.15%, 0.5% by weight, 30 day course of treatment, first 12 mice) was “mice treated with the topical vehicle (placebo) formed substantially more tumors than those treated with Compound 2.003 at all concentrations” and the “tumor induction (new tumors per mouse)” value ([2]; topical gel 0.5%, 0.15%, 0.01%, FIG. 5) was “completely suppress tumor induction”. For the same compound, the “size of existing tumors (tumor volume per mouse)” value ([2]; topical gel 0.5%, 0.15%, 0.01%, FIG. 6) was “reduce the size of existing tumors”.

For `O=C1CCCc2c1sc(Nc1ccc(I)cc1F)c2C(=O)NOCCO` [Compound 4.029], the IC50 (MAP2K1 (MEK1)) was ≤ 0.15 µM.

For `O=C1CCCc2c1sc(Nc1ccc(I)cc1F)c2C(=O)NOC[C@H](O)CO` [Compound 4.030], the IC50 (MAP2K1 (MEK1)) was ≤ 0.15 µM.

For `O=C1CCCc2c1sc(Nc1ccc(I)cc1F)c2C(=O)NOCC1CC1` [Compound 4.032], the IC50 (MAP2K1 (MEK1)) was ≤ 0.15 µM.

For `NCCONC(=O)c1c(Nc2ccc(I)cc2F)sc2c1CCCC2=O` [Compound 4.033], the IC50 (MAP2K1 (MEK1)) was ≤ 0.15 µM.

For `O=C1CCCc2c1sc(Nc1ccc(I)cc1F)c2C(=O)NC[C@H](O)CO` [Compound 4.034], the IC50 (MAP2K1 (MEK1)) was ≤ 0.15 µM.

With `O=C1CCCc2c1sc(Nc1ccc(I)cc1F)c2C(=O)NC[C@@H](O)CO` [Compound 4.035] the IC50 (MAP2K1 (MEK1)) was ≤ 0.15 µM.

With `O=c1c2c(Nc3ccc(I)cc3F)cncc2ccn1C[C@@H](O)CO` [Compound 5.001] the IC50 (MAP2K1 (MEK1)) was ≤ 0.15 µM.

For `O=c1c2c(Nc3ccc(I)cc3F)cncc2ccn1C[C@H](O)CO` [Compound 5.002], the IC50 (MAP2K1 (MEK1)) was ≤ 0.15 µM.

For `O=C(O)Cn1ccc2cncc(Nc3ccc(I)cc3F)c2c1=O` [Compound 5.004], the IC50 (MAP2K1 (MEK1)) was > 1.5 µM.

For `COC(=O)Cn1ccc2cncc(Nc3ccc(I)cc3F)c2c1=O` [Compound 5.005], the IC50 (MAP2K1 (MEK1)) was > 1.5 µM.

For `O=C(c1ccc(F)c(F)c1Nc1ccc(I)cc1F)N1CC(O)([C@@H]2CCCCN2)C1` [cobimetinib], the “reduction of skin tumors” value (skin tumors) is listed as “effective in reducing skin tumors”.

For `CC(C)Cn1cnc2c(N)nc3ccccc3c21` [imiquimod, Imiquimod], the “patients who experienced at least 1 adverse event ranging from mild to severe” value [1] is listed as “Up to 100%”.

For `CC(=O)Nc1cccc(-n2c(=O)n(C3CC3)c(=O)c3c(Nc4ccc(I)cc4F)n(C)c(=O)c(C)c32)c1` [trametinib], the “reduction of skin tumors” value (skin tumors) is listed as “effective in reducing skin tumors”.
